Results published in patent US6583120B1, “Erythromycin derivative with antibiotic activity” (Zambon Group S.A., priority 1998, dated 2003).
≈ marks a conversion by molar mass, not a printed value.

Experiments:
Klebsiella pneumoniae = assay: In vitro antibacterial activity (MIC), Gram-negative; conditions: for MIC Range: 6 strains tested; for MIC50 / MIC90: Klebsiella pneumoniae
Streptococcus agalactiae = assay: In vitro antibacterial activity (MIC), erythromycin-sensitive strains; conditions: for MIC Range: 4 strains tested, erythromycin-sensitive; for MIC50 / MIC90: Streptococcus agalactiae
Staphylococcus aureus = assay: as above; conditions: for MIC Range: 13 strains tested, erythromycin-sensitive; for MIC50 / MIC90: Staphylococcus aureus
[1] = test system: Streptococcus pneumoniae UC 41; assay: In vivo therapeutic efficacy (PD50), experimental pulmonary infection in mice; conditions: pulmonitis
Branhamella catarrhalis = assay: In vitro antibacterial activity (MIC), Gram-negative; conditions: for MIC Range: 5 strains tested; for MIC50 / MIC90: Moraxella catarrhalis
Escherichia coli = assay: as above; conditions: 3 strains tested
[2] = test system: recently clinically isolated, erythromycin-resistant strains of Streptococcus pneumoniae; assay: In vitro antibacterial activity (MIC), broth-scalar dilution micromethod, erythromycin-resistant clinical isolates; conditions: 18 h, 37° C.
[3] = test system: Streptococcus pyogenes C 203; assay: In vivo therapeutic efficacy (PD50), experimental pulmonary infection in mice; conditions: for PD50: mice, pulmonary infection
Streptococcus group A = assay: In vitro antibacterial activity (MIC), erythromycin-sensitive strains; conditions: for MIC Range: 15 strains tested, erythromycin-sensitive
Streptococcus pneumoniae = assay: as above; conditions: for MIC Range: 18 strains tested, erythromycin-sensitive; for MIC50 / MIC90: Streptococcus pneumoniae
Haemophilus influenzae = assay: In vitro antibacterial activity (MIC), Gram-negative; conditions: for MIC Range: 11 strains tested; for MIC50 / MIC90: Haemophilus influenzae
[4] = oral single dose 24 hours before the infection
[5] = oral single dose 48 hours before the infection
[6] = Strain 871, erythromycin-resistant
[7] = Strain 1035, erythromycin-resistant
[8] = Strain 1047, erythromycin-resistant
[9] = Strain 1051, erythromycin-resistant
[10] = Strain 1188, erythromycin-resistant
[11] = Strain 1392, erythromycin-resistant
[12] = Strain 9114, erythromycin-resistant
[13] = Strain 9117, erythromycin-resistant
[14] = oral single dose 1 hour after the infection
[15] = oral single dose 72 hours before the infection

SMILES | MIC Range (Klebsiella pneumoniae) | MIC50 (Klebsiella pneumoniae) | MIC90 (Klebsiella pneumoniae) | MIC Range (Streptococcus agalactiae) | MIC50 (Streptococcus agalactiae) | MIC90 (Streptococcus agalactiae) | MIC Range (Staphylococcus aureus) | MIC50 (Staphylococcus aureus) | MIC90 (Staphylococcus aureus) | MIC Range (Branhamella catarrhalis) | MIC50 (Branhamella catarrhalis) | MIC90 (Branhamella catarrhalis) | MIC Range (Escherichia coli) | MIC50 (Streptococcus group A) | MIC90 (Streptococcus group A) | MIC Range (Streptococcus group A) | MIC Range (Streptococcus pneumoniae) | MIC50 (Streptococcus pneumoniae) | MIC90 (Streptococcus pneumoniae) | MIC Range (Haemophilus influenzae) | further results
CC[C@H]1OC(=O)[C@H](C)[C@@H](O[C@H]2C[C@@](C)(OC)[C@@H](O)[C@H](C)O2)[C@H](C)[C@@H](O[C@@H]2O[C@H](C)C[C@H](N(C)C)[C@H]2O)[C@](C)(O)C[C@@H](C)CN(C)[C@H](C)[C@@H](O)[C@]1(C)O [Azithromycin] | 4 to 8 µg/mL | 4 µg/mL (≈ 5.34 µM) | 8 µg/mL (≈ 10.7 µM) | 0.0312 to 0.25 µg/mL | 0.0625 µg/mL (≈ 0.0834 µM) | 0.25 µg/mL (≈ 0.334 µM) | 0.5 to 1 µg/mL | 0.5 µg/mL (≈ 0.668 µM) | 1 µg/mL (≈ 1.34 µM) | 0.0078 to 0.0156 µg/mL | 0.0156 µg/mL (≈ 0.0208 µM) | 0.0156 µg/mL (≈ 0.0208 µM) | 2 to 4 µg/mL | 0.0625 µg/mL (≈ 0.0834 µM) | 0.125 µg/mL (≈ 0.167 µM) | 0.0625 to 1 µg/mL | 0.0156 to 0.5 µg/mL | 0.0312 µg/mL (≈ 0.0417 µM) | 0.0625 µg/mL (≈ 0.0834 µM) | 0.25 to 1 µg/mL | PD50 [1, 4]: 16.45 µmol/kg; PD50 [1, 5]: 34.13 µmol/kg; MIC [2, 6]: 2 µg/mL (≈ 2.67 µM); MIC [2, 7]: 2 µg/mL (≈ 2.67 µM); MIC [2, 8]: 4 µg/mL (≈ 5.34 µM); MIC [2, 9]: 64 µg/mL (≈ 85.4 µM); MIC [2, 10]: 8 µg/mL (≈ 10.7 µM); MIC [2, 11]: 16 µg/mL (≈ 21.4 µM); MIC [2, 12]: 32 µg/mL (≈ 42.7 µM); MIC [2, 13]: 64 µg/mL (≈ 85.4 µM); therapeutic efficacy (duration of action in vivo), in words ([3]; 72 hours after administration): lose most of their efficacy; PD50 [3, 14]: 5.32 µmol/kg; PD50 [3, 4]: 16.45 µmol/kg; PD50 [3, 5]: 34.13 µmol/kg; PD50 [3, 15]: >85.4 µmol/kg; MIC50 (Haemophilus influenzae): 0.5 µg/mL (≈ 0.668 µM); MIC90 (Haemophilus influenzae): 1 µg/mL (≈ 1.34 µM)
CC[C@H]1OC(=O)[C@H](C)[C@@H](O[C@H]2C[C@@](C)(OC)[C@@H](O)[C@H](C)O2)[C@H](C)[C@@H](O[C@@H]2O[C@H](C)C[C@H](N(C)C)[C@H]2O)[C@](C)(OC)C[C@@H](C)C(=O)[C@H](C)[C@@H](O)[C@]1(C)O [Clarithromycin] | 64 µg/mL (≈ 85.6 µM) | 64 µg/mL (≈ 85.6 µM) | 64 µg/mL (≈ 85.6 µM) | 0.0156 to 0.0625 µg/mL | 0.0312 µg/mL (≈ 0.0417 µM) | 0.0625 µg/mL (≈ 0.0836 µM) | 0.125 to 0.25 µg/mL | 0.25 µg/mL (≈ 0.334 µM) | 0.25 µg/mL (≈ 0.334 µM) | 0.0078 to 0.0156 µg/mL | 0.0156 µg/mL (≈ 0.0209 µM) | 0.0156 µg/mL (≈ 0.0209 µM) | 16 to 64 µg/mL | 0.0156 µg/mL (≈ 0.0209 µM) | 0.0156 µg/mL (≈ 0.0209 µM) | 0.0078 to 0.25 µg/mL | 0.0039 to 0.125 µg/mL | 0.0156 µg/mL (≈ 0.0209 µM) | 0.0156 µg/mL (≈ 0.0209 µM) | 2 to 8 µg/mL | therapeutic efficacy (duration of action in vivo), in words ([3]; administered 24 hours before the infection): lose most of their efficacy; PD50 [3, 14]: 7.38 µmol/kg; PD50 [3, 4]: >85.6 µmol/kg
CC[C@H]1OC(=O)[C@H](C)[C@@H](OC2CC(C)(OC)C(O)C(C)O2)[C@H](C)[C@@H](OC2OC(C)CC(N(C)C)C2O)[C@](C)(O)C[C@@H](C)/C(=N\OCCNCCCCCCNCc2nccs2)[C@H](C)[C@@H](O)[C@]1(C)O (stereo partly shown) [Compound A] | 16 to 32 µg/mL | 16 µg/mL (≈ 16.2 µM) | 32 µg/mL (≈ 32.4 µM) | 0.0078 to 0.25 µg/mL | 0.0156 µg/mL (≈ 0.0158 µM) | 0.25 µg/mL (≈ 0.253 µM) | 0.25 to 1 µg/mL | 0.5 µg/mL (≈ 0.506 µM) | 0.5 µg/mL (≈ 0.506 µM) | 0.0019 to 0.125 µg/mL | 0.125 µg/mL (≈ 0.126 µM) | 0.125 µg/mL (≈ 0.126 µM) | 1 to 8 µg/mL | 0.0156 µg/mL (≈ 0.0158 µM) | 0.0312 µg/mL (≈ 0.0316 µM) | 0.0078 to 0.5 µg/mL | 0.0019 to 0.25 µg/mL | 0.0039 µg/mL (≈ 0.00395 µM) | 0.0156 µg/mL (≈ 0.0158 µM) | 1 to 8 µg/mL | PD50 [1, 4]: 16.39 µmol/kg; PD50 [1, 5]: 25.90 µmol/kg; MIC [2, 6]: 0.5 µg/mL (≈ 0.506 µM); MIC [2, 7]: 2 µg/mL (≈ 2.02 µM); MIC [2, 8]: 2 µg/mL (≈ 2.02 µM); MIC [2, 9]: 1 µg/mL (≈ 1.01 µM); MIC [2, 10]: 2 µg/mL (≈ 2.02 µM); MIC [2, 11]: 4 µg/mL (≈ 4.05 µM); MIC [2, 12]: 0.25 µg/mL (≈ 0.253 µM); MIC [2, 13]: 0.25 µg/mL (≈ 0.253 µM); therapeutic efficacy (duration of action in vivo), in words ([3]; 72 hours after administration): still effective; PD50 [3, 14]: 15.45 µmol/kg; PD50 [3, 4]: 16.39 µmol/kg; PD50 [3, 5]: 25.90 µmol/kg; PD50 [3, 15]: 31.51 µmol/kg; MIC50 (Haemophilus influenzae): 4 µg/mL (≈ 4.05 µM); MIC90 (Haemophilus influenzae): 4 µg/mL (≈ 4.05 µM)
CC[C@H]1OC(=O)[C@H](C)[C@@H](O[C@H]2C[C@@](C)(OC)[C@@H](O)[C@H](C)O2)[C@H](C)[C@@H](O[C@@H]2O[C@H](C)C[C@H](N(C)C)[C@H]2O)[C@](C)(O)C[C@@H](C)/C(=N\OCOCCOC)[C@H](C)[C@@H](O)[C@]1(C)O [Roxithromycin] | >64 µg/mL | > 64 µg/mL | > 64 µg/mL | 0.0625 to 0.25 µg/mL | 0.125 µg/mL (≈ 0.149 µM) | 0.25 µg/mL (≈ 0.299 µM) | 0.25 to 1 µg/mL | 0.5 µg/mL (≈ 0.597 µM) | 1 µg/mL (≈ 1.19 µM) | 0.0312 to 0.0625 µg/mL | 0.0312 µg/mL (≈ 0.0373 µM) | 0.0625 µg/mL (≈ 0.0747 µM) | – | 0.0625 µg/mL (≈ 0.0747 µM) | 0.0625 µg/mL (≈ 0.0747 µM) | 0.0312 to 1 µg/mL | 0.0156 to 0.5 µg/mL | 0.0625 µg/mL (≈ 0.0747 µM) | 0.0625 µg/mL (≈ 0.0747 µM) | 4 to 16 µg/mL | MIC50 (Haemophilus influenzae): 8 µg/mL (≈ 9.56 µM); MIC90 (Haemophilus influenzae): 8 µg/mL (≈ 9.56 µM)
